Laboratory results reported in ChEMBL document CHEMBL3813605, “Jatrophane and ingenane-type diterpenoids from Euphorbia kansui inhibit the LPS-induced NO production in RAW 264.7 cells” (Bioorg Med Chem Lett, 2016).

How the values were obtained:
[1] = system: RAW264.7; test: Cytotoxicity against mouse RAW264.7 cells assessed as reduction in cell viability by MTT assay; format: cell-based
[2] = system: RAW264.7; test: Antiinflammatory activity in mouse RAW264.7 cells assessed as inhibition of LPS-induced NO production incubated for 24 hrs by Griess method; format: functional, cell-based; conditions: RAW264.7, 24 h

Compound | Activity [1] | IC50 [2] [µM]
CC(=O)OCC1=C[C@@H]2C(=O)[C@]3(C=C(C)[C@H](O)[C@@]3(O)[C@@H]1O)[C@H](C)C[C@@H]1[C@H]2C1(C)C | Non-toxic | > 100
CC(=O)O[C@H]1C(C)=C[C@]23C(=O)[C@@H](C=C(CO)[C@@H](OC(=O)c4ccccc4)[C@]12O)[C@H]1[C@@H](C[C@H]3C)C1(C)C | Non-toxic | 29.5
C=C1[C@@H](OC(C)=O)[C@@H](OC(=O)c2ccccc2)[C@@H](OC(=O)c2cccnc2)C(C)(C)[C@H]2O[C@](O)([C@H](C)C2=O)[C@@]2(OC(C)=O)C[C@H](C)[C@H](OC(C)=O)[C@@H]2[C@H]1OC(C)=O | Non-toxic | 22.1
CC1=C[C@@H]2C(=O)[C@]3(C=C(C)[C@H](O)[C@@]3(O)[C@@H]1OC(=O)c1ccccc1)[C@H](C)C[C@@H]1[C@H]2C1(C)C | Non-toxic | 3.1
C=C1[C@H](OC(=O)c2ccccc2)[C@H]2[C@@H](OC(C)=O)[C@](C)(O)[C@@H](OC(C)=O)[C@]2(O)C(=O)[C@@H](C)/C=C/C(C)(C)C(=O)[C@H](OC(C)=O)[C@H]1OC(=O)c1ccccc1 | Non-toxic | 16.4
CC1=C[C@@H]2C(=O)[C@]3(C=C(C)[C@H](OC(=O)c4ccccc4)[C@@]3(O)[C@@H]1O)[C@H](C)C[C@@H]1[C@H]2C1(C)C | Non-toxic | 16
C=C1[C@H](OC(=O)c2ccccc2)[C@H]2[C@@H](OC(C)=O)[C@](C)(O)[C@@H](O)[C@]2(OC(C)=O)C(=O)[C@@H](C)/C=C/C(C)(C)C(=O)[C@H](O)[C@H]1OC(=O)c1ccccc1 | Non-toxic | 46.5
CCCCC/C=C/C=C/C(=O)O[C@@H]1C(COC(C)=O)=C[C@@H]2C(=O)[C@]3(C=C(C)[C@H](O)[C@@]13O)[C@H](C)C[C@@H]1[C@H]2C1(C)C | Non-toxic | 7.6
C=C1[C@@H](OC(C)=O)[C@@H](OC(=O)c2ccccc2)[C@@H](OC(C)=O)C(C)(C)[C@H]2O[C@](O)([C@H](C)C2=O)[C@@]2(OC(C)=O)C[C@@](C)(O)[C@H](OC(C)=O)[C@@H]2[C@H]1OC(C)=O | Non-toxic | 50.2
CCCCC/C=C\C=C\C(=O)O[C@@H]1C(COC(C)=O)=C[C@@H]2C(=O)[C@]3(C=C(C)[C@H](O)[C@@]13O)[C@H](C)C[C@@H]1[C@H]2C1(C)C | Non-toxic | 10.1
C=C1[C@H](OC(C)=O)[C@@H](OC(=O)c2ccccc2)[C@H](OC(=O)c2cccnc2)C(C)(C)[C@H]2O[C@@H]2[C@@H](C)C(=O)[C@@]2(OC(C)=O)C[C@H](C)[C@H](OC(C)=O)[C@@H]2[C@H]1OC(C)=O | Non-toxic | 6.3
CCCCC/C=C\C=C\C(=O)O[C@H]1C(C)=C[C@]23C(=O)[C@@H](C=C(C)[C@@H](O)[C@]12O)[C@H]1[C@@H](C[C@H]3C)C1(C)C | Non-toxic | 14.1
CCCCC/C=C\C=C\C(=O)O[C@H]1C(C)=C[C@]23C(=O)[C@@H](C=C(COC(C)=O)[C@@H](O)[C@]12O)[C@H]1[C@@H](C[C@H]3C)C1(C)C | Non-toxic | 5.1
CCCCC/C=C/C=C/C(=O)O[C@H]1C(C)=C[C@]23C(=O)[C@@H](C=C(COC(C)=O)[C@@H](O)[C@]12O)[C@H]1[C@@H](C[C@H]3C)C1(C)C | Non-toxic | 0.7
C=C1[C@@H](OC(C)=O)[C@@H](OC(=O)c2ccccc2)[C@@H](OC(C)=O)C(C)(C)[C@H]2O[C@](O)([C@H](C)C2=O)[C@@]2(OC(C)=O)C[C@H](C)[C@H](OC(C)=O)[C@@H]2[C@H]1OC(C)=O | Non-toxic | 2.9
CC1=C[C@]23C(=O)[C@@H](C=C(CO)[C@@H](O)[C@]2(O)[C@H]1O)[C@H]1[C@@H](C[C@H]3C)C1(C)C [INGENOL] | Non-toxic | > 100
N=C(N)NN [PIMAGEDINE] | – | 18.7
